Assay [1] deals with T1, human calcium-sensing receptor (CaSR) (Homo sapiens, UniProt P41180).
T1 construct: expressed in transfected cells
T1 sequence (P41180 20-1078): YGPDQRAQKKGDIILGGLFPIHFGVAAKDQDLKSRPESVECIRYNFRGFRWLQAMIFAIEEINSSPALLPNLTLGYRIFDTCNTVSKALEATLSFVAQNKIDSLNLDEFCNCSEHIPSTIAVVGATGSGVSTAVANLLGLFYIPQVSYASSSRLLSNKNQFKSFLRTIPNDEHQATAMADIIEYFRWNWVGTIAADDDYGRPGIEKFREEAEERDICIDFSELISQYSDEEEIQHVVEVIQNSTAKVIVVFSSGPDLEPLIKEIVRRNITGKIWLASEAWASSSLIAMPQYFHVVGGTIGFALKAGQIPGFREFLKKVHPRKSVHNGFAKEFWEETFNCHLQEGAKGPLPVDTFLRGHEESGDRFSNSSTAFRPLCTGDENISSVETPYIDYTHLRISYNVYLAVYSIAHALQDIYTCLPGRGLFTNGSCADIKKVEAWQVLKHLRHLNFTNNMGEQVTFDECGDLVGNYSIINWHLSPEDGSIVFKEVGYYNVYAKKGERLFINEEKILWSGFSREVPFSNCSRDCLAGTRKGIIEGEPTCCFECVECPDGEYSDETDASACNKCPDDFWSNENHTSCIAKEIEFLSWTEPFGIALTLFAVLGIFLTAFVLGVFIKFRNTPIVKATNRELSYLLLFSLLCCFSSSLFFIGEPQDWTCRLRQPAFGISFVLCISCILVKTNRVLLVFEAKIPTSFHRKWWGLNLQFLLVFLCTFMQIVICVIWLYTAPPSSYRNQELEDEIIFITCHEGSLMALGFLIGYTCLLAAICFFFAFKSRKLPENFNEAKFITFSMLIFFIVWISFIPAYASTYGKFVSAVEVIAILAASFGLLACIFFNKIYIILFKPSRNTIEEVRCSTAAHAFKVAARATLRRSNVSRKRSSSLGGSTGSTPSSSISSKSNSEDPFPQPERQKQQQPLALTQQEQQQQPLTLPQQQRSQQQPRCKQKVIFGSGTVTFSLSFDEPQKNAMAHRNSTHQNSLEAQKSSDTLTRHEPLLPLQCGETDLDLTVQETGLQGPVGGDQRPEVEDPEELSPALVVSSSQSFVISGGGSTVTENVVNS
In words: Inhibitory activity on calcium-sensing receptor (CaSR), intracellular calcium increase as indicator (FLIPR, CHO/hCaSR). The format is cell-based. As to conditions: CHO cells stably expressing human CaSR; inhibition of intracellular Ca increase induced by extracellular CaCl2. In short, it runs like this:
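CHO/hCaSR cells loaded with Calcium 3 dye in HEPES/HBSS (Ca/Mg-free, 2.5 mM probenecid, pH 7.4), then preincubated 15 min with compound (final 1.05–10,000 nM). Challenged with CaCl2 ([…]) and fluorescence followed by FLIPR. IC50 derived from the peak-minus-baseline fluorescence increase.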

In assay [2] the test system is PTH secretion. In words: Evaluation of PTH secretion promoting activity in a rat (blood serum PTH after oral administration). The format is in vivo. As to conditions: female F344 rat, oral 3 mg/5 mL/kg, Mean ± S.D., n = 3. Here is the method: Evaluation of PTH Secretion Promoting Activity in a Rat
A 10 to 14-week old female F344 rat (Charles River Japan, Inc.) fasted overnight was anesthetized using ether, and blood serum before the administration was prepared by drawing blood from the jugular vein of the animal. Subsequently, the test compound was orally administered at a dose of 3 mg/5 mL/kg using a solvent (0.5% aqueous methyl cellulose solution containing 5% DMA). Blood was drawn from the jugular vein under ether anesthesia at 5, 15, 30, 60, 120, and 240 minutes after the administration of the test compound, and the blood serum was prepared. The blood serum PTH concentration was measured using rat Intact PTH ELISA kit (manufactured by Immutopics, Inc.).

One may read the IC50 as the concentration needed to halve the response being measured.

Take `Cc1ccc(C[C@@H]2CCCN2C[C@@H](O)CO[C@H](C)c2cccc(C(F)(F)F)c2CCC(=O)O)cc1F` [Example 9, 3-{2-[(1R)-1-({(2R)-3-[(2S)-2-(3-Fluoro-4-methylbenzyl)pyrrolidin-1-yl]-2-hydroxypropyl}oxy)ethyl]-6-(trifluoromethyl)phenyl}propanoic acid]: in assay [1], the IC50 was not above 3.13 µM. Besides, in assay [2], the “Blood Serum PTH (1-84) Concentration, 0 minute” value is given as 87.9 ± 25.5 pg/mL; the “Blood Serum PTH (1-84) Concentration, After 5 minutes” value amounted to 117.2 ± 32.4 pg/mL; the “Blood Serum PTH (1-84) Concentration, After 15 minutes” value turned out to be 476.5 ± 99.7 pg/mL; the “Blood Serum PTH (1-84) Concentration, After 30 minutes” value was determined as 235.6 ± 99.1 pg/mL. Moreover, in assay [2], the “Blood Serum PTH (1-84) Concentration, After 60 minutes” value was found to be 49.1 ± 16.9 pg/mL; the “Blood Serum PTH (1-84) Concentration, After 120 minutes” value was 33.6 ± 5.1 pg/mL; the “Blood Serum PTH (1-84) Concentration, After 240 minutes” value worked out at 117.2 ± 27.7 pg/mL. Regarding `Cc1ccc(C[C@@H]2CCN2C[C@@H](O)CO[C@H](C)c2ccccc2CCC(=O)O)cc1F` [Example 14, 3-{2-[(1R)-1-({(2R)-3-[(2R)-2-(3-Fluoro-4-methylbenzyl)azetidin-1-yl]-2-hydroxypropyl}oxy)ethyl]phenyl}propanoic acid], in assay [1], the IC50 was not above 3.72 µM. Besides, in assay [2], the “Blood Serum PTH (1-84) Concentration, 0 minute” value is 53.3 ± 4.4 pg/mL; the “Blood Serum PTH (1-84) Concentration, After 5 minutes” value turned out to be 195.9 ± 16.9 pg/mL; the “Blood Serum PTH (1-84) Concentration, After 15 minutes” value amounted to 429.0 ± 111.0 pg/mL; the “Blood Serum PTH (1-84) Concentration, After 30 minutes” value was found to be 198.2 ± 61.0 pg/mL. Moreover, in assay [2], the “Blood Serum PTH (1-84) Concentration, After 60 minutes” value is reported as 41.8 ± 5.8 pg/mL; the “Blood Serum PTH (1-84) Concentration, After 120 minutes” value is reported as 42.0 ± 8.5 pg/mL; the “Blood Serum PTH (1-84) Concentration, After 240 minutes” value is 64.2 ± 6.3 pg/mL. As to `Cc1cccc([C@@H](C)OC[C@H](O)CN2CCC[C@H]2Cc2ccc(Cl)c(Cl)c2)c1CCC(=O)O` [Example 162], the IC50 in assay [1] is not above 3.24 µM. On the same count and under the same terms, as for `CCc1cc(C[C@@H]2CCCN2C[C@@H](O)CO[C@H](C)c2cccc(C)c2CCC(=O)O)ccc1Cl` [Example 163], the figure is not above 3.28 µM; as for `COc1cccc([C@@H](C)OC[C@H](O)CN2CCC[C@H]2Cc2ccc(Cl)c(Cl)c2)c1CCC(=O)O` [Example 164], not above 3.13 µM. As to `CCc1cc(C[C@@H]2CCCN2C[C@@H](O)CO[C@H](C)c2cccc(OC)c2CCC(=O)O)ccc1Cl` [Example 165], in assay [1], the IC50 was not above 3.17 µM. Same read-out and setting: as for `Cc1ccc(C[C@@H]2CCCN2C[C@@H](O)CO[C@H](C)c2cc(F)ccc2CCC(=O)O)cc1Cl` [Example 166], the figure is not above 3.35 µM. Same read-out and setting: as for `COc1cccc([C@@H](C)OC[C@H](O)CN2CCC[C@H]2Cc2ccc(C)c(Cl)c2)c1CCC(=O)O` [Example 167], the figure is not above 3.27 µM. The same measure, in the same setting: then `COc1cccc([C@@H](C)OC[C@H](O)CN2CCC[C@H]2Cc2ccc(Cl)c(F)c2)c1CCC(=O)O` [Example 168], with not above 3.24 µM; and `Cc1ccc(C[C@@H]2CCCN2C[C@@H](O)CO[C@H](C)c2cccc(C)c2CCC(=O)O)cc1Cl` [Example 169], with not above 3.38 µM.

For `Cc1cccc([C@@H](C)OC[C@H](O)CN2CCC[C@H]2Cc2ccc(Cl)c(F)c2)c1CCC(=O)O` [Example 170], the IC50 in assay [1] was not above 3.35 µM. With `CC[C@@H](OC[C@H](O)CN1CCC[C@H]1Cc1ccc(C)c(Cl)c1)c1cccc(OC)c1CCC(=O)O` [Example 171], the IC50 in assay [1] is not above 3.17 µM.

As to `CC[C@@H](OC[C@H](O)CN1CCC[C@H]1Cc1ccc(C)c(Cl)c1)c1cccc(C)c1CCC(=O)O` [Example 172], the IC50 in assay [1] was not above 3.28 µM. Same read-out and setting: then `CC[C@@H](OC[C@H](O)CN1CCC[C@H]1Cc1ccc(Cl)c(F)c1)c1cccc(OC)c1CCC(=O)O` [Example 173], with not above 3.15 µM; and `Cc1cc(CCC(=O)O)c([C@@H](C)OC[C@H](O)CN2CCC[C@H]2Cc2ccc(C)c(Cl)c2)cc1F` [Example 174], with not above 3.25 µM.

Consider `Cc1cc(CCC(=O)O)c([C@@H](C)OC[C@H](O)CN2CCC[C@H]2Cc2ccc(Cl)c(Cl)c2)cc1F` [Example 175], for which, in assay [1], the IC50 is not above 3.12 µM. Same read-out and setting: as for `Cc1ccc(C[C@@H]2CCCN2C[C@@H](O)CO[C@H](C)c2cc(F)c(F)cc2CCC(=O)O)cc1Cl` [Example 176], the figure is not above 3.23 µM; as for `C[C@@H](OC[C@H](O)CN1CCC[C@H]1Cc1ccc(Cl)c(Cl)c1)c1cc(F)c(F)cc1CCC(=O)O` [Example 177], not above 3.1 µM; as for `Cc1ccc(C[C@@H]2CCCN2C[C@@H](O)CO[C@H](C)c2ccccc2CCc2nn[nH]n2)cc1F` [Example 178, (2R)-1-[(2S)-2-(3-Fluoro-4-methylbenzyl)pyrrolidin-1-yl]-3-[(1R)-1-{2-[2-(2H-tetrazol-5-yl)ethyl]phenyl}ethoxy]propan-2-ol], not above 3.12 µM.

The values above are taken from US8173631B2, “Cyclic amine compounds” (Daiichi Sankyo Company, Limited, priority 2008, dated 2012).
